# Source: the Deep4Chem optical property database
# “And” between values parts separate entries of the source, which are not always exact repeats. Equal values may be shown once.
# Test: photoluminescence quantum yield (fraction); solvent given as SMILES
smiles,measurement,setting,value
Cc1ccc(C)n1-c1cccc(C#N)c1,photoluminescence quantum yield,in C1CCOC1,0.006
same,photoluminescence quantum yield,in CCCCCC,0.004
same,photoluminescence quantum yield,in CCCCCl,0.004
same,photoluminescence quantum yield,in CCOCC,0.006
same,photoluminescence quantum yield,in ClCCl,0.003
COc1ccc(-c2ccc(-c3ccccc3)cc2)cc1,photoluminescence quantum yield,in C1CCCCC1,0.7
CNc1ccc2nc3cc(Cl)c(Cl)cc3nc2c1,photoluminescence quantum yield,in CCO,0.06
COc1ccc(C2=C3C(/C=C/c4cc(OC)c(OC)c(OC)c4)=C(C=O)C(/C=C/c4cc(OC)c(OC)c(OC)c4)=[N+]3[B-](F)(F)n3c(/C=C/c4cc(OC)c(OC)c(OC)c4)c(C=O)c(C=Cc4cc(OC)c(OC)c(OC)c4)c32)cc1,photoluminescence quantum yield,in ClCCl,0.4
CCCCCCCCCCCCCCCCCCN1C(=O)c2ccc3c4ccc5c6c(ccc(c7ccc(c2c37)C1=O)c64)C(=O)NC5=O,photoluminescence quantum yield,in CN(C)C=O,0.37
CCCCC1(c2ccccc2)Nc2c(-c3ccc(OC)cc3)ccc(-c3ccc(OC)cc3)c2N=C1c1ccccc1 (stereo not drawn),photoluminescence quantum yield,in ClC(Cl)Cl,0.45
C[Si](C)(c1cccc2ccccc12)[Si](C)(C)[Si](C)(C)[Si](C)(C)[Si](C)(C)[Si](C)(C)c1c2ccccc2cc2ccccc12,photoluminescence quantum yield,in C1CCCCC1,0.5
same,photoluminescence quantum yield,in CC#N,0.017
CCn1c2ccccc2c2cc(C#Cc3cc(C#Cc4ccc5c(c4)c4ccccc4n5CC)ncn3)ccc21,photoluminescence quantum yield,in C1CCOC1,0.74
same,photoluminescence quantum yield,in CCOC(C)=O,0.83
same,photoluminescence quantum yield,in CN(C)C=O,0.68
same,photoluminescence quantum yield,in Cc1ccccc1,0.84
same,photoluminescence quantum yield,in ClCCl,0.72
CCn1c2cc(-c3cccs3)ccc2c2ccc(-c3cccs3)cc21,photoluminescence quantum yield,in ClCCl,0.61
CC[N+]1=C(/C=C/c2c(C)nn3c(-c4ccc(OC)cc4)ccnc23)C(C)(C)c2ccccc21,photoluminescence quantum yield,in CCO,0.37
same,photoluminescence quantum yield,in ClCCl,0.13
same,photoluminescence quantum yield,in O,0.42
CC(C)(C(=O)c1ccc(N2c3ccccc3Oc3ccccc32)cc1)C(=O)c1ccc(N2c3ccccc3Oc3ccccc32)cc1,photoluminescence quantum yield,in c1ccc2c(c1)c1ccccc1n2-c1ccc(-c2ccc(-n3c4ccccc4c4ccccc43)cc2)cc1,0.54
N#Cc1nn(-c2c(Cl)cccc2Cl)nc1N1CCCC1,photoluminescence quantum yield,in CC#N,0.113
COc1ccc2c(c1)[n+]([O-])nc(N)[n+]2[O-],photoluminescence quantum yield,in CC#N,0.0227
same,photoluminescence quantum yield,in O,0.0124
COc1ccc(-c2pc3ccccc3s2)cc1 (stereo not drawn),photoluminescence quantum yield,in CC#N,0.054
CC(C)(C)n1c(=O)c2cc3ccc4cccc5ccc(c2c1=O)c3c45,photoluminescence quantum yield,in ClC(Cl)Cl,0.41 and 0.408
O=C(c1ccc(N(c2ccccc2)c2ccccc2)cc1)[C@H]1[C@H](c2ccccc2)C[C@](O)(c2ccccn2)C[C@]1(O)c1ccccn1,photoluminescence quantum yield,in C1CCOC1,0.48
same,photoluminescence quantum yield,in CC#N,0.02
same,photoluminescence quantum yield,in CCO,0.01
same,photoluminescence quantum yield,in CCOC(C)=O,0.4
same,photoluminescence quantum yield,in CN(C)C=O,0.03
same,photoluminescence quantum yield,in ClCCl,0.25
same,photoluminescence quantum yield,in c1ccccc1,0.93
F[Si-](F)(c1c2ccccc2cc2ccccc12)(c1c2ccccc2cc2ccccc12)c1c2ccccc2cc2ccccc12,photoluminescence quantum yield,in C1CCOC1,0.64
Cc1cc(-c2nc(-c3ccccc3)nc(-c3ccccc3)n2)ccc1-c1ccc2c(c1)C1(c3ccccc3-c3ccccc31)c1ccccc1N2c1ccccc1,photoluminescence quantum yield,in c1cc(-c2cccc(-n3c4ccccc4c4ccccc43)c2)cc(-n2c3ccccc3c3ccccc32)c1,1
Clc1ccc(C2=C(c3ccc(Cl)cc3)c3cccc4c3c(cc3nc5ccccc5nc34)O2)cc1,photoluminescence quantum yield,in ClCCl,0.37
CCCC1=C(CCC)c2cccc3c2c(cc2nc4ccccc4nc23)O1,photoluminescence quantum yield,in ClCCl,0.52
CCC1(CC)c2ccccc2-c2c1c1c(c3c2C(CC)(CC)c2cc(N(c4ccccc4)c4ccccc4)ccc2-3)C(CC)(CC)c2ccccc2-1,photoluminescence quantum yield,in C1CCOC1,0.49
C(S/C=C/c1ccc(-c2ccc(/C=C/SC=C3CCCCC3)cc2)cc1)=C1CCCCC1,photoluminescence quantum yield,in ClCCl,0.238
CCCCN(CCCC)c1ccc(C#Cc2cc(C#Cc3c(F)c(F)c(F)c(F)c3F)c(C#Cc3ccc(N(CCCC)CCCC)cc3)cc2C#Cc2c(F)c(F)c(F)c(F)c2F)cc1,photoluminescence quantum yield,in ClCCl,0.14
O=c1c2cc(C#Cc3ccccc3)ccc2nc2ccc(C#Cc3ccccc3)cn12,photoluminescence quantum yield,in ClCCl,0.41
COc1ccc(C2=N/C(=C\c3ccccc3)C(=O)N2)cc1OC,photoluminescence quantum yield,in C1COCCO1,0.034
CC1(C)c2ccccc2N(c2ccc(-c3cccc(C#N)c3)cc2)c2ccccc21,photoluminescence quantum yield,in Cc1ccccc1,0.112
same,photoluminescence quantum yield,in N#Cc1ccc2c(c1)c1ccccc1n2-c1cccc(-n2c3ccccc3c3ccccc32)c1,0.15
Clc1nc(Cl)nc(Nc2ccc3cc4ccccc4cc3c2)n1,photoluminescence quantum yield,in C1COCCO1,0
same,photoluminescence quantum yield,in CC#N,0
same,photoluminescence quantum yield,in CCCCOCCCC,0
same,photoluminescence quantum yield,in CCOC(C)=O,0
CC(C)[Si](C#Cc1c2nsnc2c(C#C[Si](C(C)C)(C(C)C)C(C)C)c2nc3c(nc12)C1c2ccccc2C3c2ccccc21)(C(C)C)C(C)C,photoluminescence quantum yield,in CCCCCC,0.66
Cc1ccccc1C(=O)NN1C2=C(CC3=C1CC(C)(C)CC3=O)C(=O)CC(C)(C)C2,photoluminescence quantum yield,in C1CCOC1,0.26
same,photoluminescence quantum yield,in CC#N,0.7
same,photoluminescence quantum yield,in CC(C)=O,0.53
same,photoluminescence quantum yield,in CCCCCO,0.5
same,photoluminescence quantum yield,in CO,0.3
same,photoluminescence quantum yield,in ClC(Cl)Cl,0.64
same,photoluminescence quantum yield,in ClCCl,0.47
COc1ccc(/C=C/c2nc(-c3ccc([N+](=O)[O-])cc3)[nH]c2/C=C/c2ccc(OC)cc2)cc1,photoluminescence quantum yield,in ClCCl,0
C[Si](C)(C)C#CC(C#C[Si](C)(C)C)=Cc1ccc(C=C(C#C[Si](C)(C)C)C#C[Si](C)(C)C)cc1,photoluminescence quantum yield,in ClC(Cl)Cl,0.01 and 0.03
COc1ccc(-c2cnc(/C=C/c3ccc(C#N)cc3)o2)cc1OC,photoluminescence quantum yield,in ClCCl,0.38
Cc1nc2c(cc3c4c(cccc42)C(=O)OC3=O)o1,photoluminescence quantum yield,in CCO,0.073
O=c1c2cc(Cl)ccc2nc2n1[B-](F)(F)[n+]1ccccc1-2,photoluminescence quantum yield,in CC#N,0.89
same,photoluminescence quantum yield,in ClCCl,0.99
